Reference: patent publication US8785594B2, “Glycoproteins and glycosylated cells and a method for the preparation of the same” (Glycom A/S, priority 2007, dated 2014)

How the values were obtained:
B16.BL6 melanoma cells [1] = assay: Flow cytometry with FITC-labelled GS1B4 (Example 14); type: cell-based
Protocol: Radioactive labelled and regular trisaccharide probe was dissolved in HBSS containing D-glucose (without Mg^2+ and Ca^2+) (Gibco Invitrogen, Taastrup, Denmark) and passed through sterile filters (0.2 μm Supor® Acrodisc® 13, Gelman Sciences, Ann Arbor, Mich.). Four different concentrations of each “Glycom conjugate” (25 mg, 5 mg, 1 mg and 0.1 mg) were made. Twelve flasks (150 cm^2) (TPP, Trasadingen Switzerland) were prepared each containing a total of 10×10^6 B16.BL6 cells. The trisaccharide probe was added and the total volume was adjusted to 20 mL with HBSS containing D-glucose (without Mg^2+ and Ca^2+). The cells were incubated with the “Glycom conjugate” for 1.5 hours at 37° C. After conjugation, the supernatant from each flask was transferred to separate 50 mL tubes (TPP, Trasadingen Switzerland). The cells were harvested with Cell Dissociation Solution C5914 (5 mL per flask) (Sigma-Aldrich, Saint Louis, Mo. and transferred to the 50 mL tubes containing the supernatant. The cells were centrifuged for 3 minutes at 300 G at 20° C. and resuspended in 5 mL of PBS (without Mg^2+ and Ca^2+). This was repeated 3 times before cell concentration and viability was determined by microscopical evaluation of trypan blue stained cell samples.
Cells conjugated with regular trisaccharide probe were analysed by flow cytometry. Four hundred μl of each cell suspension containing 2×10^5 cells were incubated for 15 minutes at 4° C. with 10 μg per mL of FITC-labelled GS1B4. Mean fluorescence intensity of cells stained with GS1B4 was measured by flow cytometry.

B16.BL6 melanoma cells [2] = assay: Flow cytometry with FITC-labelled GS1B4 (Example 11); type: cell-based
Protocol: Five hundred mg of alpha-Gal trisaccharide-carbamate (9) was dissolved in PBS (without Mg^2+ and Ca^2+) (Gibco Invitrogen, Taastrup, Denmark) and passed through a sterile filter (Sartorius Minisart®, 0.20 my) (Sartorius, Goettingen, Germany). Eight different concentrations of conjugate were prepared. Two mL of each conjugate dilution was added to a flask with 2 mL of PBS (without Mg^2+ and Ca^2+) and 600 μl of cell suspension containing 10^6 B16.BL6 cells. The final volume of the flasks was 4.6 mL. The flasks were numbered 1 to 10. Flasks 1 and 10 contained no conjugate and served as controls. The cells were incubated with the conjugate for 3 hours and 25 minutes at 37° C. and 5% CO2.
B16.BL6 cells from conjugation reaction 1 (non-conjugated cells), 2, 4, 6 and 8 were analysed by flow cytometry. One hundred μL of cell suspension containing 1×10^5 cells were incubated for 15 minutes at 4° C. with 10 μg per mL (1:100 dilution) of FITC-labelled GS1B4 in TBS containing 1% BSA. The proportion of cells stained, mean and median cell fluorescence intensity was determined by flow cytometry. Afterwards, cells were washed once in PBS and measurements were repeated. Rabbit red blood cells (RRBC) known to express ˜2×10^6 Galα1,3Gal epitopes per cell were used for comparison. The analyses of conjugated B16.BL6 cells and RRBCs were performed on different days.

[3] = unwashed cells, reaction 2 (200 mg conjugate)
[4] = unwashed cells, reaction 6 (10 mg conjugate)
[5] = unwashed cells, reaction 8 (2 mg conjugate)
[6] = washed cells, reaction 2 (200 mg conjugate)
[7] = washed cells, reaction 6 (10 mg conjugate)
[8] = washed cells, reaction 8 (2 mg conjugate)

## O=C1N[C@@H]2O[C@H](CO)[C@@H](O[C@@H]3O[C@H](CO)[C@H](O)[C@H](O[C@H]4O[C@H](CO)[C@H](O)[C@H](O)[C@H]4O)[C@H]3O)[C@H](O)[C@H]2O1 [Compound 9, alpha-Gal trisaccharide-carbamate]
B16.BL6 melanoma cells [1]; 0.1 mg conjugate added
  Cells marked with GS1B4: 17.64%
  Mean fluorescence intensity of cells marked with GS1B4: 1025.86
B16.BL6 melanoma cells [1]; 1 mg conjugate added
  Cells marked with GS1B4: 2.36%
  Mean fluorescence intensity of cells marked with GS1B4: 342.05
B16.BL6 melanoma cells [1]; 5 mg conjugate added
  Cells marked with GS1B4: 14.56%
  Mean fluorescence intensity of cells marked with GS1B4: 1719.58
B16.BL6 melanoma cells [1]; 25 mg conjugate added
  Cells marked with GS1B4: 31.86%
  Mean fluorescence intensity of cells marked with GS1B4: 2460.67
B16.BL6 melanoma cells [1]; 0.1-25 mg regular trisaccharide probe
  Binding of FITC-labelled GS1B4 to conjugated cells: only a fraction of the conjugated cells bound detectable amounts of FITC-labelled GS1B4
B16.BL6 melanoma cells [2]; conjugation reactions 2, 6 and 8
  Galα1,3Gal epitopes detected by binding of FITC-labelled GS1B4, flow cytometry: found on B16.BL6 cells from all conjugation reactions tested
B16.BL6 melanoma cells [2]; from fluorescence intensity, compared with rabbit red blood cells
  Number of Galα1,3Gal-epitopes on the conjugated cells: > 2×10^6 Galα1,3Gal epitopes
B16.BL6 melanoma cells [2]; reaction 2 (200 mg conjugate)
  Cells marked with FITC-GS1B4: 95.82%
B16.BL6 melanoma cells [2]; reaction 6, 10 mg conjugate
  Cells marked with FITC-GS1B4: 62.17%
B16.BL6 melanoma cells [2]; reaction 8, 2 mg conjugate
  Cells marked with FITC-GS1B4: 56.82%
B16.BL6 melanoma cells [2]; [3]
  Mean fluorescence intensity: 726.72
  Median fluorescence intensity: 523.30
B16.BL6 melanoma cells [2]; [4]
  Mean fluorescence intensity: 862.24
  Median fluorescence intensity: 798.63
B16.BL6 melanoma cells [2]; [5]
  Mean fluorescence intensity: 594.99
  Median fluorescence intensity: 572.55
B16.BL6 melanoma cells [2]; [6]
  Mean fluorescence intensity: 447.48
  Median fluorescence intensity: 321.97
B16.BL6 melanoma cells [2]; [7]
  Mean fluorescence intensity: 439.04
  Median fluorescence intensity: 406.79
B16.BL6 melanoma cells [2]; [8]
  Mean fluorescence intensity: 264.30
  Median fluorescence intensity: 259.45
